Measurements taken from US20150105252A1, “SUBSTITUTED PYRAZOLES AS HERBICIDES” (E I DU PONT DE NEMOURS AND COMPANY, priority 2013, published 2015).

Columns and labels:
[1] = system: canarygrass; assay: Test D preemergence; assay type: in vivo, Phalaris minor; conditions: for Plant response rating, Canarygrass: Preemergence, scale 0 to 100
How it was run: (§1)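 Preemergence: seeds sown in silt loam and sprayed with compounds in a non-phytotoxic solvent with surfactant; postemergence: plants at 2 to 18 cm (1- to 4-leaf stage) in peat-based medium treated likewise. After 14 to 21 days in controlled growth conditions, injury rated visually versus controls on 0 (no effect) to 100 (complete control) scale.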

[2] = system: bromegrass, downy; assay: Test D preemergence; assay type: in vivo, Bromus tectorum; conditions: for Plant response rating, Bromegrass, Downy: Preemergence, scale 0 to 100
How it was run: as §1

[3] = system: field poppy; assay: Test D preemergence; assay type: in vivo, Papaver rhoeas; conditions: for Plant response rating, Field Poppy: Preemergence, scale 0 to 100
How it was run: as §1

[4] = system: field violet; assay: Test D preemergence; assay type: in vivo, Viola arvensis; conditions: for Plant response rating, Field Violet: Preemergence, scale 0 to 100
How it was run: as §1

[5] = system: ryegrass, Italian; assay: Test D preemergence; assay type: in vivo, Lolium multiflorum; conditions: for Plant response rating, Ryegrass, Italian: Preemergence, scale 0 to 100
How it was run: as §1

[6] = system: lambsquarters; assay: Test D preemergence; assay type: in vivo, Chenopodium album; conditions: for Plant response rating, Lambsquarters: Preemergence, scale 0 to 100
How it was run: as §1

[7] = system: pigweed; assay: Test D preemergence; assay type: in vivo, Amaranthus retroflexus; conditions: for Plant response rating, Pigweed: Preemergence, scale 0 to 100
How it was run: as §1

[8] = system: speedwell; assay: Test D preemergence; assay type: in vivo, Veronica persica; conditions: for Plant response rating, Speedwell: Preemergence, scale 0 to 100
How it was run: as §1

[9] = system: barley, spring; assay: Test D preemergence; assay type: in vivo, Hordeum vulgare; conditions: for Plant response rating, Barley, Spring: Preemergence, scale 0 to 100
How it was run: as §1

[10] = system: barley, winter; assay: Test D preemergence; assay type: in vivo, Hordeum vulgare; conditions: for Plant response rating, Barley, Winter: Preemergence, scale 0 to 100
How it was run: as §1

[11] = system: radish, wild; assay: Test D preemergence; assay type: in vivo, Raphanus raphanistrum; conditions: for Plant response rating, Radish, Wild: Preemergence, scale 0 to 100
How it was run: as §1

[12] = system: bluegrass; assay: Test D postemergence; assay type: in vivo, Poa annua; conditions: scale 0 to 100
How it was run: as §1

[13] = system: blackgrass; assay: Test D postemergence; assay type: in vivo, Alopecurus myosuroides; conditions: scale 0 to 100
How it was run: as §1

[14] = system: chickweed; assay: Test D postemergence; assay type: in vivo, Stellaria media; conditions: scale 0 to 100
How it was run: as §1

[15] = system: ryegrass, Italian; assay: Test D postemergence; assay type: in vivo, Lolium multiflorum; conditions: scale 0 to 100
How it was run: as §1

[16] = system: kochia; assay: Test D postemergence; assay type: in vivo, Kochia scoparia; conditions: scale 0 to 100
How it was run: as §1

[17] = system: oilseed rape; assay: Test D postemergence; assay type: in vivo, Brassica napus; conditions: scale 0 to 100
How it was run: as §1

[18] = system: wheat, spring; assay: Test D postemergence; assay type: in vivo, Triticum aestivum; conditions: scale 0 to 100
How it was run: as §1

[19] = system: wheat, winter; assay: Test D postemergence; assay type: in vivo, Triticum aestivum; conditions: scale 0 to 100
How it was run: as §1

[20] = system: oat, wild; assay: Test D postemergence; assay type: in vivo, Avena fatua; conditions: scale 0 to 100
How it was run: as §1

[21] = 16 g ai/ha, taken as preemergence

## O=C(NC1CC1)c1cc(CCF)n(Cc2ccnc(C(F)(F)F)c2)n1 [Compound 176]
[1]; [21]
  Plant response rating (scale 0 to 100), Canarygrass: 0
[1]; 31 g ai/ha
  Plant response rating, Canarygrass: 5
[1]; 62 g ai/ha
  Plant response rating, Canarygrass: 25
[1]; 125 g ai/ha
  Plant response rating, Canarygrass: 35
[2]; [21]
  Plant response rating (scale 0 to 100), Bromegrass, Downy: 0
[2]; 31 g ai/ha
  Plant response rating, Bromegrass, Downy: 0
[2]; 62 g ai/ha
  Plant response rating, Bromegrass, Downy: 15
[2]; 125 g ai/ha
  Plant response rating, Bromegrass, Downy: 25
[3]; [21]
  Plant response rating (scale 0 to 100), Field Poppy: 10
[3]; 62 g ai/ha
  Plant response rating, Field Poppy: 55
[3]; 125 g ai/ha
  Plant response rating, Field Poppy: 100
[4]; [21]
  Plant response rating (scale 0 to 100), Field Violet: 0
[4]; 62 g ai/ha
  Plant response rating, Field Violet: 50
[4]; 125 g ai/ha
  Plant response rating, Field Violet: 65
[5]; [21]
  Plant response rating (scale 0 to 100), Ryegrass, Italian: 0
[5]; 62 g ai/ha
  Plant response rating, Ryegrass, Italian: 25
[5]; 125 g ai/ha
  Plant response rating, Ryegrass, Italian: 30
[6]; [21]
  Plant response rating (scale 0 to 100), Lambsquarters: 0
[6]; 62 g ai/ha
  Plant response rating, Lambsquarters: 65
[6]; 125 g ai/ha
  Plant response rating, Lambsquarters: 95
[7]; [21]
  Plant response rating (scale 0 to 100), Pigweed: 10
[7]; 62 g ai/ha
  Plant response rating, Pigweed: 40
[7]; 125 g ai/ha
  Plant response rating, Pigweed: 100
[8]; [21]
  Plant response rating (scale 0 to 100), Speedwell: 15
[8]; 62 g ai/ha
  Plant response rating, Speedwell: 100
[8]; 125 g ai/ha
  Plant response rating, Speedwell: 100
[9]; 16 g ai/ha, taken as preemergence, 0 = no effect, 100 = complete control
  Plant response rating (scale 0 to 100), Barley, Spring: 0
[9]; 31 g ai/ha
  Plant response rating, Barley, Spring: 0
[9]; 62 g ai/ha
  Plant response rating, Barley, Spring: 0
[9]; 125 g ai/ha
  Plant response rating, Barley, Spring: 0
[10]; [21]
  Plant response rating (scale 0 to 100), Barley, Winter: 0
[10]; 31 g ai/ha
  Plant response rating, Barley, Winter: 0
[10]; 62 g ai/ha
  Plant response rating, Barley, Winter: 0
[10]; 125 g ai/ha
  Plant response rating, Barley, Winter: 0
[11]; [21]
  Plant response rating (scale 0 to 100), Radish, Wild: 15
[11]; 62 g ai/ha
  Plant response rating, Radish, Wild: 75
[11]; 125 g ai/ha
  Plant response rating, Radish, Wild: 100
[12]; Postemergence, 16 g ai/ha
  Plant response rating, Bluegrass: 5
[12]; Postemergence, 31 g ai/ha
  Bluegrass plant response rating: 15
[12]; Postemergence, 125 g ai/ha
  Bluegrass plant response rating: 25
[12]; postemergence, 62 g ai/ha
  Bluegrass plant response rating: 15
[13]; Postemergence, 16 g ai/ha
  Plant response rating, Blackgrass: 5
[13]; Postemergence, 31 g ai/ha
  Blackgrass plant response rating: 15
[13]; Postemergence, 125 g ai/ha
  Blackgrass plant response rating: 20
[13]; postemergence, 62 g ai/ha
  Blackgrass plant response rating: 15
[14]; Postemergence, 16 g ai/ha
  Plant response rating, Chickweed: 20
[14]; Postemergence, 31 g ai/ha
  Chickweed plant response rating: 35
[14]; Postemergence, 125 g ai/ha
  Chickweed plant response rating: 65
[14]; postemergence, 62 g ai/ha
  Chickweed plant response rating: 35
[15]; Postemergence, 16 g ai/ha
  Plant response rating, Ryegrass, Italian: 5
[15]; Postemergence, 31 g ai/ha
  Ryegrass, Italian plant response rating: 5
[15]; Postemergence, 125 g ai/ha
  Ryegrass, Italian plant response rating: 10
[15]; postemergence, 62 g ai/ha
  Ryegrass, Italian plant response rating: 5
[16]; Postemergence, 16 g ai/ha
  Plant response rating, Kochia: 30
[16]; Postemergence, 31 g ai/ha
  Kochia plant response rating: 65
[16]; Postemergence, 125 g ai/ha
  Kochia plant response rating: 70
[16]; postemergence, 62 g ai/ha
  Kochia plant response rating: 65
[17]; Postemergence, 16 g ai/ha
  Plant response rating, Oilseed Rape: 20
[17]; Postemergence, 31 g ai/ha
  Oilseed Rape plant response rating: 40
[17]; Postemergence, 125 g ai/ha
  Oilseed Rape plant response rating: 55
[17]; postemergence, 62 g ai/ha
  Oilseed Rape plant response rating: 40
[18]; Postemergence, 16 g ai/ha
  Plant response rating, Wheat, Spring: 0
[18]; Postemergence, 31 g ai/ha
  Wheat, Spring plant response rating: 0
[18]; Postemergence, 125 g ai/ha
  Wheat, Spring plant response rating: 0
[18]; postemergence, 62 g ai/ha
  Wheat, Spring plant response rating: 0
[19]; Postemergence, 16 g ai/ha
  Plant response rating, Wheat, Winter: 5
[19]; Postemergence, 31 g ai/ha
  Wheat, Winter plant response rating: 5
[19]; Postemergence, 125 g ai/ha
  Wheat, Winter plant response rating: 15
[19]; postemergence, 62 g ai/ha
  Wheat, Winter plant response rating: 5
[20]; Postemergence, 16 g ai/ha
  Plant response rating, Oat, Wild: 5
[20]; Postemergence, 31 g ai/ha
  Oat, Wild plant response rating: 15
[20]; Postemergence, 125 g ai/ha
  Oat, Wild plant response rating: 20
[20]; postemergence, 62 g ai/ha
  Oat, Wild plant response rating: 15
